Results from patent US11304929B2, “Tosylacetate based compounds and derivatives thereof as PHGDH inhibitors” (priority 2017, dated 2022).
Where two headings read alike, the source gives them in different places.

Experiments:
MDA-MB-468 = test: 13C3 Serine Assay MDA-MB-468 (13C3 serine levels by LC/MS/MS); format: cell-based; settings: Homo sapiens; MDA-MB-468 cells, 13C3 serine levels by LC/MS/MS; read-out: IC50 (13CSERINE)
Description: Cells are cultivated in Medium I in a 75 mL flask.
Day 1: 5000 cells in 180 μL Medium I/well were seeded into a 96-well plate. Plates were incubated at 37° C. in a 5% CO2 incubator overnight.
Day 2: 10 mM DMSO stock from test compounds were serially pre-diluted with Medium I (See dilution scheme: for the first well 20 μL DMSO stock are diluted with 180 μL Medium I. From this 1000 μM solution further seven 1:3 (1+2) dilution are prepared with Medium I). 20 μL of these pre-dilutions are transferred in duplicates to the 96-well plate of Day 1. After incubation at 37° C. in a CO2 incubator for 1 hour the medium was removed, 100 μL PBS (tempered to room temperature) added and subsequently removed again.
180 μL Medium II were then added per well and 20 μL of serial dilutions of test compounds in Medium II (as described before) were transferred per well as above. After 180 minutes incubation at 37° C. in a CO2 incubator the medium was again cautiously removed.
After the addition of 100 μL methanol: H2O (80:20, v:v, pre-cooled to −80° C.) the plates were sealed immediately and frozen at −80° C.
At day of measurement plates were thawn, centrifuged and the supernatant evaporated. The samples were resuspended in 100 μl water for tandem mass spectrometry.
^13C3 serine levels were analyzed with LC/MS/MS using Multiple Reaction Monitoring (MRM).
IC50 values were computed from these values using a 4 parametric logistic model.

PHGDH = PHGDH (Homo sapiens (Human), UniProt O43175); test: 3-Phosphoglycerate Dehydrogenase (PHGDH) Fluorescence Intensity Assay, run at two NAD/3-PG ratios: PHGDH_HIGH_NAD/3-PG (250 μM NAD/500 μM 3-PG) and PHGDH_500_NAD/3-PG (500 μM NAD/500 μM 3-PG); format: biochemical
[1] = 250 μM NAD/500 μM 3-PG, read-out: IC50 (PHGDH_HIGH_NAD/3-PG)
[2] = 500 μM NAD/500 μM 3-PG, read-out: IC50 (PHGDH_500_NAD/3-PG)

PHGDH, sequence (O43175 2-533 limits assumed): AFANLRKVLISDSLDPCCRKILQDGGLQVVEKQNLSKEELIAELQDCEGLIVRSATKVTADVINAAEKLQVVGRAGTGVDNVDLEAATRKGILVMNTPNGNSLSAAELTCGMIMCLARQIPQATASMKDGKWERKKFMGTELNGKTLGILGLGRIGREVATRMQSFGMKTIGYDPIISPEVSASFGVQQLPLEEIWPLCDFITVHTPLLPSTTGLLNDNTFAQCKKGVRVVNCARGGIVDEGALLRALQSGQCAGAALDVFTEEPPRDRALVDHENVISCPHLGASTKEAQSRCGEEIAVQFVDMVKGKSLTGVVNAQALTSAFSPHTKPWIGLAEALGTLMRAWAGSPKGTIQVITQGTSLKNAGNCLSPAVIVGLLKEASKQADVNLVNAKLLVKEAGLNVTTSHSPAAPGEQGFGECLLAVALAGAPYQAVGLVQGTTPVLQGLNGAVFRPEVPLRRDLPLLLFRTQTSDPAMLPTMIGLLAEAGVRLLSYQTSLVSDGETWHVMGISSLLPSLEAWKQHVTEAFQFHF

Structure (SMILES)	IC50 (MDA-MB-468) [nM]	IC50 (PHGDH; [1]) [nM]	IC50 (PHGDH; [2]) [nM]
CCOC(=O)C(C)S(=O)(=O)c1ccc([C@@H](C)NC(=O)c2cc3c(Cl)cc(C)cc3n2C)cc1 (stereo partly drawn) [Example 05-011, ethyl 2-{4-[(1R)-1-[(4-chloro-1,6-dimethyl-1H-indol-2-yl)formamido]ethyl]benzenesulfonyl}propanoate]	3.9	5020	–
Cc1cc(Cl)c2cc(C(=O)N[C@H](C)c3ccc(S(=O)(=O)C(C)(C)C(=O)OC(C)C)cc3)n(C)c2c1 [Example 05-012, propan-2-yl 2-{4-[(1R)-1-[(4-chloro-1,6-dimethyl-1H-indol-2-yl)formamido]ethyl]benzenesulfonyl}-2-methylpropanoate]	906	25100	–
CCC(C(=O)OC)S(=O)(=O)c1ccc([C@@H](C)NC(=O)c2cc3c(Cl)cc(C)cc3n2C)cc1 (stereo partly drawn) [Example 05-013, methyl 2-{4-[(1R)-1-[(4-chloro-1,6-dimethyl-1H-indol-2-yl)formamido]ethyl]benzenesulfonyl}butanoate]	166	5530	–
COC(=O)C(C)(C)S(=O)(=O)c1ccc([C@@H](CO)NC(=O)c2cc3c(Cl)c(Cl)c(C)cc3n2C)cc1 [Example 05-017, methyl 2-{4-[(1S)-1-[(4,5-dichloro-1,6-dimethyl-1H-indol-2-yl)formamido]-2-hydroxyethyl]benzenesulfonyl}-2-methylpropanoate]	0.3	1230	2960
COCCOC(=O)C(C)(C)S(=O)(=O)c1ccc([C@@H](C)NC(=O)c2cc3c(Cl)c(Cl)c(C)nc3n2C)cc1 [Example 05-018, 2-methoxyethyl 2-{4-[(1R)-1-({4,5-dichloro-1,6-dimethyl-1H-pyrrolo[2,3-b]pyridin-2-yl}formamido)ethyl]benzenesulfonyl}-2-methylpropanoate]	142	5330	–
COC(=O)C1(S(=O)(=O)c2ccc([C@@H](C)NC(=O)c3cc4c(Cl)cc(C)cc4n3C)cc2)CC1 [Example 05-019, methyl 1-{4-[(1R)-1-[(4-chloro-1,6-dimethyl-1H-indol-2-yl)formamido]ethyl]benzenesulfonyl}cyclopropane-1-carboxylate]	509	5310	–
COC(=O)C1(S(=O)(=O)c2ccc([C@@H](C)NC(=O)c3cc(-c4ccc(F)cc4)nn3C)cc2)CCOCC1 [Example 06-001, methyl 4-{4-[(1R)-1-{[3-(4-fluorophenyl)-1-methyl-1H-pyrazol-5-yl]formamido}ethyl]benzenesulfonyl}oxane-4-carboxylate]	25400	7700	–
COC(=O)C(C)(C)S(=O)(=O)c1ccc([C@@H](C)NC(=O)c2cc(-c3ccc(F)cc3)nn2C)cc1 [Example 06-002, methyl 2-{4-[(1R)-1-{[3-(4-fluorophenyl)-1-methyl-1H-pyrazol-5-yl]formamido}ethyl]benzenesulfonyl}-2-methylpropanoate]	1880	14700	–
Cc1cc(Cl)c2cc(C(=O)N[C@H](C)c3ccc(S(=O)(=O)C4(C(=O)O)CCOCC4)cc3)n(C)c2c1 [Example 07-002, 4-{4-[(1R)-1-[(4-chloro-1,6-dimethyl-1H-indol-2-yl)formamido]ethyl]benzenesulfonyl}oxane-4-carboxylic acid]	6900	7	–
Cc1cc(Cl)c2cc(C(=O)N[C@H](C)c3ccc(S(=O)(=O)C(C)(C)C(=O)O)cc3)n(C)c2c1 [Example 07-005, 2-{4-[(1R)-1-[(4-chloro-1,6-dimethyl-1H-indol-2-yl)formamido]ethyl]benzenesulfonyl}-2-methylpropanoic acid]	1190	12	–
CCCC(C(=O)O)S(=O)(=O)c1ccc([C@@H](C)NC(=O)c2cc3c(Cl)cc(C)cc3n2C)cc1 (stereo partly drawn) [Example 07-012, 2-{4-[(1R)-1-[(4-chloro-1,6-dimethyl-1H-indol-2-yl)formamido]ethyl]benzenesulfonyl}pentanoic acid]	2390	6	16
CCOCCOCCOC(=O)CS(=O)(=O)c1ccc([C@@H](C)NC(=O)c2cc3c(Cl)cc(C)cc3n2C)cc1 [Example 09-001, 2-(2-ethoxyethoxy)ethyl 2-{4-[(1R)-1-[(4-chloro-1,6-dimethyl-1H-indol-2-yl)formamido]ethyl]benzenesulfonyl}acetate]	53.8	289	–
CC(=O)OCCOC(=O)CS(=O)(=O)c1ccc([C@@H](C)NC(=O)c2cc3c(Cl)cc(C)cc3n2C)cc1 [Example 09-002, 2-(acetyloxy)ethyl 2-{4-[(1R)-1-[(4-chloro-1,6-dimethyl-1H-indol-2-yl)formamido]ethyl]benzenesulfonyl}acetate]	69	230	–
COCCOC(=O)CS(=O)(=O)c1ccc([C@@H](C)NC(=O)c2cc3c(Cl)c(Cl)c(C)nc3n2C)cc1 [Example 09-003, 2-methoxyethyl 2-{4-[(1R)-1-({4,5-dichloro-1,6-dimethyl-1H-pyrrolo[2,3-b]pyridin-2-yl}formamido)ethyl]benzenesulfonyl}acetate]	82.8	286	–
CO[C@@H](C)COC(=O)CS(=O)(=O)c1ccc([C@@H](C)NC(=O)c2cc3c(Cl)cc(C)cc3n2C)cc1 [Example 09-004, (2S)-2-methoxypropyl 2-{4-[(1R)-1-[(4-chloro-1,6-dimethyl-1H-indol-2-yl)formamido]ethyl]benzenesulfonyl}acetate]	78.6	394	–
Cc1cc(Cl)c2cc(C(=O)N[C@H](C)c3ccc(S(=O)(=O)CC(=O)OCCOCCO)cc3)n(C)c2c1 [Example 09-005, 2-(2-hydroxyethoxy)ethyl 2-{4-[(1R)-1-[(4-chloro-1,6-dimethyl-1H-indol-2-yl)formamido]ethyl]benzenesulfonyl}acetate]	139	197	–
Cc1cc(Cl)c2cc(C(=O)N[C@H](C)c3ccc(S(=O)(=O)CC(=O)OCCO)cc3)n(C)c2c1 [Example 09-007, 2-hydroxyethyl 2-{4-[(1R)-1-[(4-chloro-1,6-dimethyl-1H-indol-2-yl)formamido]ethyl]benzenesulfonyl}acetate]	23.9	166	–
Cc1cc(Cl)c2cc(C(=O)N[C@H](C)c3ccc(S(=O)(=O)CC(=O)OCc4cccc(C(F)(F)F)c4)cc3)n(C)c2c1 [Example 09-011, [3-(trifluoromethyl)phenyl]methyl 2-{4-[(1R)-1-[(4-chloro-1,6-dimethyl-1H-indol-2-yl)formamido]ethyl]benzenesulfonyl}acetate]	20.1	3510	–
Cc1cc(Cl)c2cc(C(=O)N[C@H](C)c3ccc(S(=O)(=O)CC(=O)OCC4(C)COC4)cc3)n(C)c2c1 [Example 09-012, (3-methyloxetan-3-yl)methyl 2-{4-[(1R)-1-[(4-chloro-1,6-dimethyl-1H-indol-2-yl)formamido]ethyl]benzenesulfonyl}acetate]	22.2	303	–
Cc1cc(Cl)c2cc(C(=O)N[C@H](C)c3ccc(S(=O)(=O)CC(=O)OCC(C)C)cc3)n(C)c2c1 [Example 09-013, 2-methylpropyl 2-{4-[(1R)-1-[(4-chloro-1,6-dimethyl-1H-indol-2-yl)formamido]ethyl]benzenesulfonyl}acetate]	70.1	19300	–
Cc1cc(Cl)c2cc(C(=O)N[C@H](C)c3ccc(S(=O)(=O)CC(=O)OC4CCOCC4)cc3)n(C)c2c1 [Example 09-014, oxan-4-yl 2-{4-[(1R)-1-[(4-chloro-1,6-dimethyl-1H-indol-2-yl)formamido]ethyl]benzenesulfonyl}acetate]	14.7	1040	–
Cc1cc(Cl)c2cc(C(=O)N[C@H](C)c3ccc(S(=O)(=O)CC(=O)OCCS(C)(=O)=O)cc3)n(C)c2c1 [Example 09-020, 2-methanesulfonylethyl 2-{4-[(1R)-1-[(4-chloro-1,6-dimethyl-1H-indol-2-yl)formamido]ethyl]benzenesulfonyl}acetate]	37.4	54	–
CC(=O)OCOC(=O)CS(=O)(=O)c1ccc([C@@H](C)NC(=O)c2cc(-c3ccccc3)nn2C)cc1 [Example 10-003, (acetyloxy)methyl 2-{4-[(1R)-1-[(1-methyl-3-phenyl-1H-pyrazol-5-yl)formamido]ethyl]benzenesulfonyl}acetate]	23.7	816	–
C[C@@H](NC(=O)c1cc(-c2ccc(F)cc2)nn1C)c1ccc(S(=O)(=O)CC(=O)OCC2(C)COC2)cc1 [Example 10-006, (3-methyloxetan-3-yl)methyl 2-{4-[(1R)-1-{[3-(4-fluorophenyl)-1-methyl-1H-pyrazol-5-yl]formamido}ethyl]benzenesulfonyl}acetate]	103	938	–
Cc1cc(Cl)c2cc(C(=O)N[C@H](C)c3ccc(S(=O)(=O)CC(=O)NO)cc3)n(C)c2c1 [Example 14-020, 4-chloro-N-[(1R)-1-{4-[(hydroxycarbamoyl)methanesulfonyl]phenyl}ethyl]-1,6-dimethyl-1H-indole-2-carboxamide]	136	172	–
